{
  "source": "paper PMC11594608",
  "about": "“Sulfonamide-Based Inhibition of the β-Carbonic Anhydrase from A. baumannii, a Multidrug-Resistant Bacterium” (International Journal of Molecular Sciences, 2024)",
  "data": [
    {"target": "T1, hCA I (Homo sapiens, UniProt P00915)", "T1 construct": "gene CA1", "T1 sequence (P00915 2-261)": "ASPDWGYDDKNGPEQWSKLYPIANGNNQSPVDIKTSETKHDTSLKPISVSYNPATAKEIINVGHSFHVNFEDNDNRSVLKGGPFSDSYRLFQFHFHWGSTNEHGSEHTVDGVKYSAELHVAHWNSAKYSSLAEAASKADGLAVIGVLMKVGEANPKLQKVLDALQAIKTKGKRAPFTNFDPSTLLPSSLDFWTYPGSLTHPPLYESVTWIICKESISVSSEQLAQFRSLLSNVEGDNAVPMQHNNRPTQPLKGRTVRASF", "experiment": "stopped-flow CO2 hydrase assay", "type": "biochemical", "details": "CO2 substrate, […] HEPES pH […] °C, […] min preincubation; read-out: KI (nM) ^a / CA I", "units": {"Ki": "nM"}, "values": [
      {"smiles": "NS(=O)(=O)c1cccc(S(N)(=O)=O)c1", "note": "[compound 3, 3]", "Ki": 79}
    ]},
    {"target": "T1, hCA I", "experiment": "stopped-flow CO2 hydrase assay", "type": "biochemical", "details": "read-out: KI (nM) ^a / CA I", "units": {"Ki": "nM"}, "values": [
      {"smiles": "Cc1ccc(S(N)(=O)=O)cc1", "note": "[compound 4, 4]", "Ki": 78500}
    ]},
    {"target": "T2, βAbauCA (CanB) (Acinetobacter baumannii, UniProt A0A7U3Y636)", "T2 construct": "gene AB57_1063; oligomer not determined here", "T2 sequence (A0A7U3Y636 1-204)": "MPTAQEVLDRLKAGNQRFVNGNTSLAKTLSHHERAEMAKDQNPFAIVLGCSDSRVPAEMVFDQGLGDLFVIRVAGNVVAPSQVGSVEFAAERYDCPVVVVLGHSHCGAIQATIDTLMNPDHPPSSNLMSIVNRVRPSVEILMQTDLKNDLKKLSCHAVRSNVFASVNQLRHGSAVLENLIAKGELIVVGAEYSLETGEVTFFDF", "experiment": "stopped-flow CO2 hydrase assay", "type": "biochemical", "details": "CO2 substrate, […] TRIS pH […] NaClO4, […] °C, […] min preincubation", "units": {"Ki": "nM"}, "values": [
      {"smiles": "CC(=O)Nc1nnc(S(N)(=O)=O)s1", "note": "[AAZ, 5-acetamido-1,3,4-thiadia-zole-2-sulphonamide]", "Ki": 191},
      {"smiles": "CCN[C@H]1CN(CCCOC)S(=O)(=O)c2sc(S(N)(=O)=O)cc21", "note": "[BRZ, Brinzolamide]", "Ki": 170},
      {"smiles": "NS(=O)(=O)c1nnc(NS(=O)(=O)c2ccccc2)s1", "note": "[BZA, Benzolamide]", "Ki": 113},
      {"smiles": "Cc1ccc(-c2cc(C(F)(F)F)nn2-c2ccc(S(N)(=O)=O)cc2)cc1", "note": "[CLX]", "Ki": 270},
      {"smiles": "NS(=O)(=O)c1cc(Cl)c(Cl)c(S(N)(=O)=O)c1", "note": "[DCP]", "Ki": 472},
      {"smiles": "CCN[C@H]1C[C@H](C)S(=O)(=O)c2sc(S(N)(=O)=O)cc21", "note": "[DZA]", "Ki": 232},
      {"smiles": "NS(=O)(=O)c1cc2c(cc1Cl)NCNS2(=O)=O", "note": "[HCT]", "Ki": 875},
      {"smiles": "CC(=O)N=c1sc(S(N)(=O)=O)nn1C", "note": "[MZA]", "Ki": 249},
      {"smiles": "O=C1NS(=O)(=O)c2ccccc21", "note": "[SAC]", "Ki": 7490},
      {"smiles": "CCN1CCCC1CNC(=O)c1cc(S(N)(=O)=O)ccc1OC", "note": "(stereo not shown) [SLP]", "Ki": 6860},
      {"smiles": "NS(=O)(=O)c1ccc(N2CCCCS2(=O)=O)cc1", "note": "[SLT]", "Ki": 542},
      {"smiles": "CC1(C)O[C@@H]2[C@@H](CO[C@@]3(COS(N)(=O)=O)OC(C)(C)O[C@@H]23)O1", "note": "[TPM, topiramate]", "Ki": 2770},
      {"smiles": "Cc1onc(-c2ccccc2)c1-c1ccc(S(N)(=O)=O)cc1", "note": "[VLX]", "Ki": 215},
      {"smiles": "NS(=O)(=O)Cc1noc2ccccc12", "note": "[ZNS]", "Ki": 2340},
      {"smiles": "Cc1ccc(S(N)(=O)=O)cc1", "note": "[compound 4, 4]", "Ki": 1480},
      {"smiles": "NS(=O)(=O)c1cc(Cl)cc(Cl)c1O", "note": "[compound 10, 10]", "Ki": 4160},
      {"smiles": "Nc1cc(C(F)(F)F)c(S(N)(=O)=O)cc1S(N)(=O)=O", "note": "[compound 11, 11]", "Ki": 928},
      {"smiles": "Nc1cc(Cl)c(S(N)(=O)=O)cc1S(N)(=O)=O", "note": "[compound 12, 12]", "Ki": 1200},
      {"smiles": "Nc1nnc(S(N)(=O)=O)s1", "note": "[compound 13, 13]", "Ki": 444},
      {"smiles": "Cn1nc(S(N)(=O)=O)sc1=N", "note": "[compound 14, 14]", "Ki": 604},
      {"smiles": "NS(=O)(=O)c1ccc(O)cc1", "note": "[compound 15, 15]", "Ki": 625},
      {"smiles": "NS(=O)(=O)c1ccc(CO)cc1", "note": "[compound 16, 16]", "Ki": 700},
      {"smiles": "NS(=O)(=O)c1ccc(CCO)cc1", "note": "[compound 17, 17]", "Ki": 715},
      {"smiles": "NS(=O)(=O)c1ccc(C(=O)O)cc1", "note": "[compound 18, 18]", "Ki": 547},
      {"smiles": "Nc1nccc(Nc2ccc(S(N)(=O)=O)cc2)n1", "note": "[compound 19, 19]", "Ki": 407},
      {"smiles": "Nc1ccc(S(=O)(=O)Nc2nnc(S(N)(=O)=O)s2)cc1", "note": "[compound 20, 20]", "Ki": 344},
      {"smiles": "Nc1ccc(S(=O)(=O)Nc2ccc(S(N)(=O)=O)cc2)cc1", "note": "[compound 22, 22]", "Ki": 276},
      {"smiles": "Nc1ccc(S(=O)(=O)NCc2ccc(S(N)(=O)=O)cc2)cc1", "note": "[compound 23, 23]", "Ki": 317},
      {"smiles": "Nc1ccc(S(=O)(=O)NCCc2ccc(S(N)(=O)=O)cc2)cc1", "note": "[compound 24, 24]", "Ki": 326}
    ]}
  ]
}
